Source: ChEMBL document CHEMBL5154801, “Virtual screening and crystallographic studies reveal an unexpected γ-lactone derivative active against MptpB as a potential antitubercular agent” (Eur J Med Chem, 2022)

Columns and labels:
[1] = molecular target: T1, Phosphotyrosine-protein phosphatase PTPB (Mycobacterium tuberculosis, UniProt P96830); experiment: Inhibition of Mycobacterium tuberculosis PTPB expressed in Escherichia coli BL21 (DE3) assessed as residual activity
T1 sequence (P96830 whole entry): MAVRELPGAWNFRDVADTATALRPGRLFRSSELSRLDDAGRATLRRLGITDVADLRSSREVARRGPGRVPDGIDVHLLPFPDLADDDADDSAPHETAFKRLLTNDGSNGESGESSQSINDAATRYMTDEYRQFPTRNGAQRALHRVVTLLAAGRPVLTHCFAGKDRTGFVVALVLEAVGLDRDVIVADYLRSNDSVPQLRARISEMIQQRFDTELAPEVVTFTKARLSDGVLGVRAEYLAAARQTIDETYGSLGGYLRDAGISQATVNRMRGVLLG

[2] = molecular target: T2, Phosphotyrosine-protein phosphatase PTPB (Mycobacterium tuberculosis) (UniProt P96830); experiment: Inhibition of Mycobacterium tuberculosis PTPB expressed in Escherichia coli BL21 (DE3) assessed as residual activity at 100 uM using p-nitrophenyl phosphate as substrate relative to control
T2 sequence (whole entry): T1 sequence (P96830 whole entry)

[3] = molecular target: T1, Phosphotyrosine-protein phosphatase PTPB; experiment: Inhibition of Mycobacterium tuberculosis PTPB expressed in Escherichia coli BL21 (DE3) in presence of DTT by PAINS assay
[4] = Cytotoxicity against human WI-38 cells assessed as reduction in cell viability at 200 to 0.02 uM measured after 96 hrs; type: toxicity, cell-based
[5] = molecular target: T1, Phosphotyrosine-protein phosphatase PTPB; experiment: Inhibition of Mycobacterium tuberculosis PTPB expressed in Escherichia coli BL21 (DE3) in presence of BSA by PAINS assay
[6] = Cytotoxicity against human MRC5 cells assessed as reduction in cell viability at 200 to 0.02 uM measured after 96 hrs; type: toxicity, cell-based

Row | Structure (SMILES) | IC50 [1] | Activity [2] | other results
1 | O=C1OC(c2ccccc2C(F)(F)F)C(c2ccc3ccccc3n2)=C1O (stereo in doubt; 1-E1) [listing 1 of 2 here] | 31.1 µM |  | 
2 | O=C1OC(c2ccccc2C(F)(F)F)C(c2ccc3ccccc3n2)=C1O (stereo in doubt; 1-E2) [listing 1 of 2 here] |  | 27.7% | 
3 | O=C(O)c1cc(-c2cc(Cl)ccc2Cl)[nH]n1 |  | 109% | 
4 | O=C(O)C(=O)/C(=C/c1ccccc1C(F)(F)F)c1ccc2ccccc2n1 | 48.1 µM | 24.3% | IC50 [3]: 47 µM; IC50 at 96 h [4]: > 200 µM; IC50 [5]: 51.6 µM; IC50 at 96 h [6]: > 200 µM
5 | COc1cccc(C2CC(O)=Nc3c(C(=O)O)cn(-c4cccc(F)c4)c32)c1OC (stereo not drawn) |  | 101% | 
6 | Cc1nc(-c2cccnc2-n2cnc(C(=O)O)c2)no1 |  | 83.2% | 
7 | O=C1OC(c2ccccc2C(F)(F)F)C(c2ccc3ccccc3n2)=C1O (stereo in doubt; 1-E1) [listing 2 of 2 here] |  | 14.2% | 
8 | O=C1OC(c2ccccc2C(F)(F)F)C(c2ccc3ccccc3n2)=C1O (stereo in doubt; 1-E2) [listing 2 of 2 here] | 72.2 µM |  | 
9 | CCOC(=O)c1c(NC(=O)C(=O)O)sc2c1CCCC2 |  | 69.5% | 
10 | CC1(C)Cc2c(sc(NC(=O)C(=O)O)c2C(=O)O)CO1 |  | 104% | 
11 | Cc1onc(C(=O)O)c1-c1cccc(-c2cc(Cl)c(O)c(Cl)c2)c1 | 25.8 µM | 10.9% | 
12 | CC(C)c1nnc(NC(=O)C(=O)O)s1 |  | 87.2% | 
